Test results as given in patent US11672788B2, “Histone deacetylase inhibitors for immunomodulation in tumor microenvironment” (GREAT NOVEL THERAPEUTICS BIOTECH & MEDICALS CORPORATION, priority 2020, dated 2023).
In brackets after ≈: the same amount, converted by molar mass. Entries after “also recorded” stand apart in the source; their conditions may differ.

Legend:
Saturation solubility = assay type: physicochemical; details: water, thermodynamic from solid, ddH2O, 25° C., mean ± SD, BDL: Below detection limit
Procedure: Samples of 5 mg of compounds were added to 5 ml volumetric flasks containing ddH2O and shaken at 100 rpm in an incubator at 25° C. for 90 minutes. The resulting suspension was filtered through a 0.22 μm filter. The concentrations of compounds were determined spectrophotometrically at 256 nm. The saturation solubility of each sample was determined in triplicates and the mean value and standard deviation were reported.

HDAC3 = HDAC3 (Homo sapiens (Human), UniProt O15379); assay: HDAC3 enzymatic kinetic assay; assay type: biochemical; details: 2 μM; 20 min, 40 min and 60 min
Procedure: HDAC3 enzymatic kinetic assay was performed according to standard Protocols (Fluorgenic HDAC3 assay kit, BPS Bioscience™). […] After incubation, assay developer was added to the samples and the absorbance was read at fluorogenic wavelength. The relative inhibition to HDAC3 activity in each sample was determined.

[1] = tested on: histone H3 acetylation (AcH3) in MDA-MB-231 cells; assay: Western blot of histone H3 acetylation; assay type: cell-based, human; details: MDA-MB-231, 1.0 μM
Procedure, shortened: (§1)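 MDA-MB-231 and SW48 cells in L-15 with 10% FCS were treated at indicated doses for 24 h or over a time course. RIPA lysates were immunoblotted for acetylated histone H3 with β-actin as loading control, using ECL detection.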

[2] = tested on: histone H3 acetylation (AcH3) in SW48 cells; assay: Western blot of histone H3 acetylation; assay type: cell-based, human; details: SW48, 1.0 μM, 2-72 h
Procedure, shortened: as §1

HDAC2 = HDAC2 (Homo sapiens (Human), UniProt Q92769); assay: HDACs 1-11 enzymatic inhibition by BPS Bioscience
Procedure: (§2) HDAC assay was performed according to standard Protocols (Fluorgenic HDACs 1-11 assay kit, BPS Bioscience™). […] After 0.5 h, assay developer was added to the samples and the absorbance was read at fluorogenic wavelength. The relative inhibition to HDACs 1, 2, 3, 4, 5, 6, 7, 8, 9, and 11 activities was determined in each sample. […] All of the compounds were dissolved in DMSO. The serial dilution of the compounds was first performed in 100% DMSO with the highest concentration at 1 mM. Each intermediate compound dilution (in 100% DMSO) would then get directly diluted 10× fold into assay buffer for an intermediate dilution of 10% DMSO in HDAC assay buffer and 5 μl of the dilution was added to a 50 μl reaction so that the final concentration of DMSO is 1% in all of the reactions. […] Fluorescence intensity was measured at an excitation of 360 nm and an emission of 460 nm using a Tecan Infinite M1000 microplate reader. […] The fluorescent intensity data were analyzed using the computer software, Graphpad Prism. […] The percent activity in the presence of each compound was calculated according to the following equation: % activity=(F−Fb)/(Ft−Fb), where F=the fluorescent intensity in the presence of the compound. […] The IC50 value was determined by the concentration causing a half-maximal percent activity.

HDAC3/NCOR2 = HDAC3/NCOR2 (Homo sapiens (Human), UniProt O15379); assay: HDACs 1-11 enzymatic inhibition by BPS Bioscience
Procedure: as §2

HDAC5 = HDAC5 (Homo sapiens (Human), UniProt Q9UQL6); assay: HDACs 1-11 enzymatic inhibition by BPS Bioscience
Procedure: (§3) HDAC assay was performed according to standard Protocols (Fluorgenic HDACs 1-11 assay kit, BPS Bioscience™). […] After 0.5 h, assay developer was added to the samples and the absorbance was read at fluorogenic wavelength. The relative inhibition to HDACs 1, 2, 3, 4, 5, 6, 7, 8, 9, and 11 activities was determined in each sample. […] All of the compounds were dissolved in DMSO. The serial dilution of the compounds was first performed in 100% DMSO with the highest concentration at 1 mM. Each intermediate compound dilution (in 100% DMSO) would then get directly diluted 10× fold into assay buffer for an intermediate dilution of 10% DMSO in HDAC assay buffer and 5 μl of the dilution was added to a 50 μl reaction so that the final concentration of DMSO is 1% in all of the reactions. The enzymatic reactions for the HDAC enzymes were conducted in duplicate at 37° C. for 30 minutes in a 50 μl mixture containing HDAC assay buffer, 5 μg BSA, an HDAC substrate, a HDAC enzyme and a test compound. After enzymatic reactions, 50 μl of 2×HDAC Developer was added to each well for the HDAC enzymes and the plate was incubated at room temperature for an additional 15 minutes. Fluorescence intensity was measured at an excitation of 360 nm and an emission of 460 nm using a Tecan Infinite M1000 microplate reader. HDAC activity assays were performed in duplicate at each concentration. The fluorescent intensity data were analyzed using the computer software, Graphpad Prism. In the absence of the compound, the fluorescent intensity (Ft) in each data set was defined as 100% activity. In the absence of HDAC, the fluorescent intensity (Fb) in each data set was defined as 0% activity. The percent activity in the presence of each compound was calculated according to the following equation: % activity=(F−Fb)/(Ft−Fb), where F=the fluorescent intensity in the presence of the compound. […] The IC50 value was determined by the concentration causing a half-maximal percent activity.

HDAC6 = HDAC6 (Homo sapiens (Human), UniProt Q9UBN7); assay: HDACs 1-11 enzymatic inhibition by BPS Bioscience
Procedure: as §3

HDAC11 = HDAC11 (Homo sapiens (Human), UniProt Q96DB2); assay: HDACs 1-11 enzymatic inhibition by BPS Bioscience
HDAC11, sequence (Q96DB2 whole entry): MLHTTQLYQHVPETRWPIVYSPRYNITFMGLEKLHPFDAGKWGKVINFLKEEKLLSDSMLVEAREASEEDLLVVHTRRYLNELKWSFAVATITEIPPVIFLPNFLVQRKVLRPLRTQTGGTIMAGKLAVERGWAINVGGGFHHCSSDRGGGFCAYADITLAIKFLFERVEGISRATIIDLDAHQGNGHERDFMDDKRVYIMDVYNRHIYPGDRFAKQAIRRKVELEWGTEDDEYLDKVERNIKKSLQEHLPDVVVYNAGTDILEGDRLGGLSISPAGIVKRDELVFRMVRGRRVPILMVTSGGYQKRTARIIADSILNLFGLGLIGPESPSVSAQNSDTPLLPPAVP
Procedure: HDAC assay was performed according to standard Protocols (Fluorgenic HDACs 1-11 assay kit, BPS Bioscience™). […] After 0.5 h, assay developer was added to the samples and the absorbance was read at fluorogenic wavelength. The relative inhibition to HDACs 1, 2, 3, 4, 5, 6, 7, 8, 9, and 11 activities was determined in each sample. […] All of the compounds were dissolved in DMSO. The serial dilution of the compounds was first performed in 100% DMSO with the highest concentration at 1 mM. Each intermediate compound dilution (in 100% DMSO) would then get directly diluted 10× fold into assay buffer for an intermediate dilution of 10% DMSO in HDAC assay buffer and 5 μl of the dilution was added to a 50 μl reaction so that the final concentration of DMSO is 1% in all of the reactions. The enzymatic reactions for the HDAC enzymes were conducted in duplicate at 37° C. for 30 minutes in a 50 μl mixture containing HDAC assay buffer, 5 μg BSA, an HDAC substrate, a HDAC enzyme and a test compound. After enzymatic reactions, 50 μl of 2×HDAC Developer was added to each well for the HDAC enzymes and the plate was incubated at room temperature for an additional 15 minutes. Fluorescence intensity was measured at an excitation of 360 nm and an emission of 460 nm using a Tecan Infinite M1000 microplate reader. HDAC activity assays were performed in duplicate at each concentration. The fluorescent intensity data were analyzed using the computer software, Graphpad Prism. In the absence of the compound, the fluorescent intensity (Ft) in each data set was defined as 100% activity. In the absence of HDAC, the fluorescent intensity (Fb) in each data set was defined as 0% activity. The percent activity in the presence of each compound was calculated according to the following equation: % activity=(F−Fb)/(Ft−Fb), where F=the fluorescent intensity in the presence of the compound. The values of % activity versus a series of compound concentrations were then plotted using non-linear regression analysis of Sigmoidal dose-response curve generated with the equation Y=B+(T−B)/1+10((Log EC50−X)×Hill Slope), where Y=percent activity, B=minimum percent activity, T=maximum percent activity, X=logarithm of compound and Hill Slope=slope factor or Hill coefficient. The IC50 value was determined by the concentration causing a half-maximal percent activity.

HDAC5, sequence (Q9UQL6 whole entry): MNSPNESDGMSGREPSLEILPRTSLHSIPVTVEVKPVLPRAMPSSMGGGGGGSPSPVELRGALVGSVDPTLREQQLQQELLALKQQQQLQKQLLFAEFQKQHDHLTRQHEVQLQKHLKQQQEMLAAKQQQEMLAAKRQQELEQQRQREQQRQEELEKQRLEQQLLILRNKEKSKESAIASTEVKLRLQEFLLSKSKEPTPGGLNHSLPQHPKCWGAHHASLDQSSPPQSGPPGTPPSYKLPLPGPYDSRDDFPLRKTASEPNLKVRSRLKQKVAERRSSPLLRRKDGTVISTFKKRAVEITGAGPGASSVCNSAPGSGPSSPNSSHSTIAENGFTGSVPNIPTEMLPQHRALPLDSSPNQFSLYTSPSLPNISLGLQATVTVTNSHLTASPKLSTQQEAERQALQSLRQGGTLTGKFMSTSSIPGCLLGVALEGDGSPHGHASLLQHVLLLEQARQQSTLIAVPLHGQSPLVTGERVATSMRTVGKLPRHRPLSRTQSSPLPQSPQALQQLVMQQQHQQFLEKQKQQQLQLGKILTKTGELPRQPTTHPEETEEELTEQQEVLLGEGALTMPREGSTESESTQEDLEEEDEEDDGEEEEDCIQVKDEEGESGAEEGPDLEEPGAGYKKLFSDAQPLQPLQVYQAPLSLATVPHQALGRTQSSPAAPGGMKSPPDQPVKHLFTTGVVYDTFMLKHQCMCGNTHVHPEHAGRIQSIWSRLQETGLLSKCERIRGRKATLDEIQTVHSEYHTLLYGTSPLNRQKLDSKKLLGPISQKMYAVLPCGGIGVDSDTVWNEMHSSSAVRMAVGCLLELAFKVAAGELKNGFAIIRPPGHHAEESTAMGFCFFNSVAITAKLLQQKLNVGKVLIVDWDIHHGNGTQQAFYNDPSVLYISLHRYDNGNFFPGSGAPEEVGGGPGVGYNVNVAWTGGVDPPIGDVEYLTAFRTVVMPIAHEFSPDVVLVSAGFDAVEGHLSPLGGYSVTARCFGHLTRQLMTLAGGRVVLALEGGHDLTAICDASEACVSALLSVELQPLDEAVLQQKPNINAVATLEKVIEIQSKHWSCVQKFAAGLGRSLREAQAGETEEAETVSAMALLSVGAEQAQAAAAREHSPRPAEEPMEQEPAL
HDAC6, sequence (Q9UBN7 whole entry): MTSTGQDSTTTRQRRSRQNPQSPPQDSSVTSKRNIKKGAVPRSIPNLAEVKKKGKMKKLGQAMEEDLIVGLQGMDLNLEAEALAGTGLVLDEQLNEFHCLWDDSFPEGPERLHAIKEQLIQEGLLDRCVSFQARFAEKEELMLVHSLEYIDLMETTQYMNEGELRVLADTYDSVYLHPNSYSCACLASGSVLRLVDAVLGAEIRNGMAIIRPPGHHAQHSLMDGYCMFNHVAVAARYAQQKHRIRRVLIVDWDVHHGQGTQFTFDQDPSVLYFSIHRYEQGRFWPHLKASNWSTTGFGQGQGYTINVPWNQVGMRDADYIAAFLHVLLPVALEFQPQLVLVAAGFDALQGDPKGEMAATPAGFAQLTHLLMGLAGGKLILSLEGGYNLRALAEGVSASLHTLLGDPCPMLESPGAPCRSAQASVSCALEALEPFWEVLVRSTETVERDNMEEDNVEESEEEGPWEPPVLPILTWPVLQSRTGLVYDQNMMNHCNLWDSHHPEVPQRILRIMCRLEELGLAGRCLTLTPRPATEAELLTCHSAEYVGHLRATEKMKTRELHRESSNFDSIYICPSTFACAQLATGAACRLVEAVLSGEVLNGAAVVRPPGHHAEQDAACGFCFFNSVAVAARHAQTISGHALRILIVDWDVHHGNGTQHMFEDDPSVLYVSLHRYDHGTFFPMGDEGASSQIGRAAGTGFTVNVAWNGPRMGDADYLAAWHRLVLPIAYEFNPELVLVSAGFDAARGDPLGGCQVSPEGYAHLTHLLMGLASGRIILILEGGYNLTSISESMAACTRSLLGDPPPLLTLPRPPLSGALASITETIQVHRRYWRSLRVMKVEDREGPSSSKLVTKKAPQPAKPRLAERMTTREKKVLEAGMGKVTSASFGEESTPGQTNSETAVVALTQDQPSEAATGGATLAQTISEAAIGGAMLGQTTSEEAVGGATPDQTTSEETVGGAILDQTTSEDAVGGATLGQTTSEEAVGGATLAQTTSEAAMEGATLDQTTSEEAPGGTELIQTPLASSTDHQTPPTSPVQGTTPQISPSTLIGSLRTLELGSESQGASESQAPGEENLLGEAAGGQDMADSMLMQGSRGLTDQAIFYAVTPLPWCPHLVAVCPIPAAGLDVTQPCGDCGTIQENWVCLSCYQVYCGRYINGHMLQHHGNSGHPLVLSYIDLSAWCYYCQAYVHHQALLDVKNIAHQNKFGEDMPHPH
HDAC3, sequence (O15379 whole entry): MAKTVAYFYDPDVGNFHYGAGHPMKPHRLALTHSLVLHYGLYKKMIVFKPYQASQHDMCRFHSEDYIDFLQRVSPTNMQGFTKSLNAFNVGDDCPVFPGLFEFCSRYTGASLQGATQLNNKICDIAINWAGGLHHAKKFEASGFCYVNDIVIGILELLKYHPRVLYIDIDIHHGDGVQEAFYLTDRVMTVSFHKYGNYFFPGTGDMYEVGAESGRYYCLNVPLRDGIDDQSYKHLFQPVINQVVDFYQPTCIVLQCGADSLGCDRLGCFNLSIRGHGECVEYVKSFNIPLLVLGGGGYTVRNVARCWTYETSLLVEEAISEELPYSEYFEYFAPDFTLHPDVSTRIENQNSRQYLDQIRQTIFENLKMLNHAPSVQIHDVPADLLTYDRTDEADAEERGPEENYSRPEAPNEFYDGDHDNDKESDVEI
HDAC3, sequence (Q9Y618 395-489 partner): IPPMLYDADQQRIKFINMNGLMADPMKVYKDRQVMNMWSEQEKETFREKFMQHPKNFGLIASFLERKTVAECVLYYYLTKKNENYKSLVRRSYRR
HDAC2, sequence (Q92769 whole entry): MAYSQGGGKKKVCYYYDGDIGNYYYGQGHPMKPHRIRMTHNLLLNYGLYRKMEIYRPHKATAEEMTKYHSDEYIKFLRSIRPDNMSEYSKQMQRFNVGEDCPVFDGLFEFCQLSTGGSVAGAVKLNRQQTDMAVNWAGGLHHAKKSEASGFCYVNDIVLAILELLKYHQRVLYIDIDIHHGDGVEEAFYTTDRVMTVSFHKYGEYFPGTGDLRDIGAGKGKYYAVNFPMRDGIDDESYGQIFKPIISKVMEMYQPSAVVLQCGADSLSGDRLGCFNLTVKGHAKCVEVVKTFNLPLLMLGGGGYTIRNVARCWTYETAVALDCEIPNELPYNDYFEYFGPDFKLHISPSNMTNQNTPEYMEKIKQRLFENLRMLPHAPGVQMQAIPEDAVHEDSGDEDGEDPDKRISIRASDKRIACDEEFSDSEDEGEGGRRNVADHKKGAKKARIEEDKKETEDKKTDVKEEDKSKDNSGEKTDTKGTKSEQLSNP
HDAC3/NCOR2, sequence (O15379 whole entry): as the sequence (O15379 whole entry) above
HDAC3/NCOR2, sequence (Q9Y618 395-489 partner): as the sequence (Q9Y618 395-489 partner) above

Cc1ccc(/C=C/CC(=O)Nc2ccc(C(=O)Nc3ccc(F)cc3N)nc2)cn1 [GNTbm-02, 5-((E)-4-(6-methylpyridin-3-yl)but-3-enamido)-N-(2-amino-4-fluorophenyl)pyridine-2-carboxamide]
solubility at 90 min (Saturation solubility): 33.6 µg/mL (≈ 82.9 µM)
Inhibition of HDAC 3 enzyme activities (kinetics) (HDAC3): stronger inhibition of HDAC 3 enzyme activities than Entinostat; also recorded: stronger inhibition of HDAC 3 enzyme activities than GNTbm-01
Histone H3 acetylation, time course ([1]; 2-72 h): potently induced histone H3 acetylation in MDA-MB-231 cell after 6 h treatment
Level of histone H3 acetylation ([1]; 24 h): significantly increased the level of histone H3 acetylation
Histone H3 acetylation, time course [2]: potently induced histone H3 acetylation level in SW48 cells after 6 h treatment
IC50 (HDAC2): 910 nM
IC50 (HDAC3/NCOR2): 730 nM
IC50 (HDAC5): > 10000 nM
HDAC5 Inhibition at 10 μM (HDAC5; 10 μM): not inhibited; also recorded: No Inhibition at 10 μM
IC50 (HDAC6): > 10000 nM
HDAC6 Inhibition at 10 μM (HDAC6; 10 μM): not inhibited; also recorded: No Inhibition at 10 μM
IC50 (HDAC11): > 10000 nM
HDAC11 Inhibition at 10 μM (HDAC11; 10 μM): not inhibited; also recorded: No Inhibition at 10 μM
